According to patent US20240228467A1, “INDIRUBIN COMPOUNDS AND METHODS THEREOF” (JAWAHARLAL NEHRU CENTRE FOR ADVANCED SCIENTIFIC RESEARCH, priority 2021, published 2024):

System: HeLa and/or SH-SY5Y cells
Assay: Autophagic flux, RFP-EGFP-LC3 assay (fluorescent analysis, FIG. 1)
Format: cell-based
Conditions: compared to the growth media control
From the text: Autophagic flux refers to a measure of autophagic degradation activity. FIG. 1 depicts the fluorescent analysis of the autophagic flux in the presence of 6-bromoindirubin oxime (6-BIO), 6-MIO, and compounds of Formula I—compounds ‘a’ and ‘m’. FIG. 1 depicts that both autophagosomes and autolysosomes are increased with the compounds of Formula I when compared to the growth media control.
The assays were essentially performed as follows: RFP-EGFP-LC3 assay: sub-confluent HeLa and/or SH-SY5Y cells were seeded into 60 mm cell culture dishes, then transfected with ptf LC3 construct and/or siRNA and allowed to express for 48 h. Cells were trypsinized, seeded again on poly-D-lysine coated cover slips in a 12 or 24 well plates and allowed to attach. After appropriate treatments, the coverslips containing cells were processed for imaging. For immunofluorescent antibody staining, the cover slips were incubated in primary antibody at 4° C. for overnight followed by secondary antibody incubation at room temperature. For imaging the mammalian cells, after appropriate treatments, coverslips containing cells were fixed using 4% paraformaldehyde (PFA; Sigma) and then permeabilized using Triton X-100 (0.2%, HiMedia). Coverslips were mounted on slide using antifade, Vectashield mounting medium (Vector Laboratories). Images were acquired using DeltaVision Elite widefieldmicroscope (API, GE) with following filters: FITC (490/20 and 529/38), TRITC (542/27 and 594/45) and Cy5 (632/22 and 676/34). Acquired images were processed using DV softWoRX software. In this standard assay, the autophagosomes would appear as yellow whereas autolysosomes would be red as EGFP gets quenched at lysosomal acidic pH6.

SMILES	autolysosomes	autophagosomes
O=C1Nc2cc(Br)ccc2/C1=C1/Nc2ccccc2/C1=N\O.[Li] [a, (2Z,3E)-6′-bromo-3-(hydroxyimino)-[2,3′-biindolinylidene]-2′-one lithium salt]	increased	increased
O=C1Nc2cc(Br)ccc2/C1=C1/Nc2ccccc2/C1=N\OCCO [m, (2Z,3E)-6′-bromo 3-((2-hydroxyethoxy)imino)-[2,3′-biindolinylidene]-2′-one]	increased	increased
